In patent publication US11173151B2, “Substituted triazole derivatives and uses thereof” (BAYER AKTIENGESELLSCHAFT, priority 2017, dated 2021):
Where a name gives a salt, the structure may show the parent alone.

Assays:
human V1a receptor = molecular target: T1, human V1a receptor (Homo sapiens, UniProt P37288); test: Cellular in vitro assay for determining vasopressin receptor activity, V1a receptor cell line (CHO, aequorin luminescence); assay type: cell-based; details: for IC50: CHO cell line transfected with human V1a receptor, [Arg]-vasopressin at EC50 concentration, read-out: IC50 hV1a; for ratio IC50 hV2/hV1a: selectivity ratio IC50 hV2 / IC50 hV1a
T1 construct: expressed in transfected cells; host or cells: CHO K1 (ATCC), also stably transfected with a modified aequorin
Outline: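 CHO K1/aequorin cells, coelenterazine 5 μg/ml o/n; cpd 10 min; [Arg]-vasopressin at EC50; luminescence read immediately; IC50.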

human V2 receptor = molecular target: T2, human V2 receptor (Homo sapiens, UniProt P30518); test: Cellular in vitro assay for determining vasopressin receptor activity, V2 receptor cell line (CHO, CRE-luciferase); assay type: cell-based; details: CHO cell line transfected with human V2 receptor; [Arg8]-vasopressin at EC50 concentration; read-out: IC50 hV2
T2 construct: expressed in transfected cells; host or cells: CHO K1 (ATCC) expressing firefly luciferase under a CRE-responsive promoter
T2 sequence (P30518 whole entry): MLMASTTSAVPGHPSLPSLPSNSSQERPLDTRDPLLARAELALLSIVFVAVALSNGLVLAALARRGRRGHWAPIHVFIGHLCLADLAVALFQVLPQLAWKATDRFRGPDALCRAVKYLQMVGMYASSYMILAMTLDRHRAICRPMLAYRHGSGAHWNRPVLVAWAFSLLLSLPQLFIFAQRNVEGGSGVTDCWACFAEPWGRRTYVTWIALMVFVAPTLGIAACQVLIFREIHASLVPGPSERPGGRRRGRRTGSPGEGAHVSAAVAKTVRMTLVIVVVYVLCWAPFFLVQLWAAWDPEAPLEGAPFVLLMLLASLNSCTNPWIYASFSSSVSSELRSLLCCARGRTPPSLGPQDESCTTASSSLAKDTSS

T1 sequence (P37288 whole entry): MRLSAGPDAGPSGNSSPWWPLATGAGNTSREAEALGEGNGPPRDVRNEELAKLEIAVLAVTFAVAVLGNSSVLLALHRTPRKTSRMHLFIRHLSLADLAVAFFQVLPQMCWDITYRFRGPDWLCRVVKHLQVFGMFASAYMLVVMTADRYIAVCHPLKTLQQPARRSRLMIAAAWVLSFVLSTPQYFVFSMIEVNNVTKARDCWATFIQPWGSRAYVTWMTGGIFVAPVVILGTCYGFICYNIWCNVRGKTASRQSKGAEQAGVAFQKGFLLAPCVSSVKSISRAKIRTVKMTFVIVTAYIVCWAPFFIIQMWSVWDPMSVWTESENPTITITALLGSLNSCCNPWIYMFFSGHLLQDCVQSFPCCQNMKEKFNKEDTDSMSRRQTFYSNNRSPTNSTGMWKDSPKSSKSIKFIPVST

SMILES	IC50 (human V1a receptor) [µM]	ratio IC50 hV2/hV1a (human V1a receptor)	IC50 (human V2 receptor) [µM]
O=C(c1ncccc1-n1cnc(Cn2nc(-c3ccc(Cl)cc3)n(C[C@H](O)C(F)(F)F)c2=O)n1)N1CCS(=O)(=O)CC1 [Example 452, 5-(4-Chlorophenyl)-2-[(1-{2-[(1,1-dioxidothiomorpholin-4-yl)carbonyl]pyridin-3-yl}-1H-1,2,4-triazol-3-yl)methyl]-4-[(2S)-3,3,3-trifluoro-2-hydroxypropyl]-2,4-dihydro-3H-1,2,4-triazol-3-one]	0.265	22.3	5.9
CC1(C)CNCCN1C(=O)c1ncccc1-n1cnc(Cn2nc(-c3ccc(Cl)cc3)n(C[C@H](O)C(F)(F)F)c2=O)n1 [Example 453, 5-(4-Chlorophenyl)-2-[(1-{2-[(2,2-dimethylpiperazin-1-yl)carbonyl]pyridin-3-yl}-1H-1,2,4-triazol-3-yl)methyl]-4-[(2S)-3,3,3-trifluoro-2-hydroxypropyl]-2,4-dihydro-3H-1,2,4-triazol-3-one-Hydrochloric Acid Salt]	0.175	182.9	32
O=C(NCC(F)(F)F)c1ncccc1-n1cnc(Cn2nc(-c3ccc(Cl)cc3)n(C[C@@H](O)C(F)(F)F)c2=O)n1 [Example 457, 3-[3-({3-(4-Chlorophenyl)-5-oxo-4-[(2R)-3,3,3-trifluoro-2-hydroxypropyl]-4,5-dihydro-1H-1,2,4-triazol-1-yl}methyl)-1H-1,2,4-triazol-1-yl]-N-(2,2,2-trifluoroethyl)pyridine-2-carboxamide]	0.21	25.2	5.3
O=C(NC1CC1(F)F)c1ncccc1-n1cnc(Cn2nc(-c3ccc(Cl)cc3)n(C[C@@H](O)C(F)(F)F)c2=O)n1 (stereo partly drawn) [Example 460, 3-[3-({3-(4-Chlorophenyl)-5-oxo-4-[(2R)-3,3,3-trifluoro-2-hydroxypropyl]-4,5-dihydro-1H-1,2,4-triazol-1-yl}methyl)-1H-1,2,4-triazol-1-yl]-N-[2,2-difluorocyclopropyl]pyridine-2-carboxamide]	0.13	30.4	3.95
NC(=O)[C@@H]1CC(F)(F)CN1C(=O)c1ncccc1-n1cnc(Cn2nc(-c3ccc(Cl)cc3)n(C[C@@H](O)C(F)(F)F)c2=O)n1 [Example 461, 1-({3-[3-({3-(4-Chlorophenyl)-5-oxo-4-[(2R)-3,3,3-trifluoro-2-hydroxypropyl]-4,5-dihydro-1H-1,2,4-triazol-1-yl}methyl)-1H-1,2,4-triazol-1-yl]pyridin-2-yl}carbonyl)-4,4-difluoro-L-prolinamide]	1.1	20.0	22
O=C(c1ncccc1-n1cnc(Cn2nc(-c3ccc(Cl)cc3)n(C[C@@H](O)C(F)(F)F)c2=O)n1)N1CCC(F)(F)C1 [Example 463, 5-(4-Chlorophenyl)-2-[(1-{2-[(3,3-difluoropyrrolidin-1-yl)carbonyl]pyridin-3-yl}-1H-1,2,4-triazol-3-yl)methyl]-4-[(2R)-3,3,3-trifluoro-2-hydroxypropyl]-2,4-dihydro-3H-1,2,4-triazol-3-one]	0.235	136.2	32
CC1(C)CN(C(=O)c2ncccc2-n2cnc(Cn3nc(-c4ccc(Cl)cc4)n(C[C@@H](O)C(F)(F)F)c3=O)n2)CCO1 [Example 464, 5-(4-Chlorophenyl)-2-[(1-{2-[(2,2-dimethylmorpholin-4-yl)carbonyl]pyridin-3-yl}-1H-1,2,4-triazol-3-yl)methyl]-4-[(2R)-3,3,3-trifluoro-2-hydroxypropyl]-2,4-dihydro-3H-1,2,4-triazol-3-one]	0.06	533.3	32
O=C(NC1CC(F)(F)C1)c1ncccc1-n1cnc(Cn2nc(-c3ccc(Cl)cc3)n(C[C@@H](O)C(F)(F)F)c2=O)n1 [Example 465, 3-[3-({3-(4-Chlorophenyl)-5-oxo-4-[(2R)-3,3,3-trifluoro-2-hydroxypropyl]-4,5-dihydro-1H-1,2,4-triazol-1-yl}methyl)-1H-1,2,4-triazol-1-yl]-N-(3,3-difluorocyclobutyl)pyridine-2-carboxamide]	0.17	21.2	3.6
O=C(c1ncccc1-n1cnc(Cn2nc(-c3ccc(Cl)cc3)n(C[C@@H](O)C(F)(F)F)c2=O)n1)N1CCC(O)(C(F)(F)F)C1 (stereo partly drawn) [Example 468, 5-(4-Chlorophenyl)-2-{[1-(2-{[3-hydroxy-3-(trifluoromethyl)pyrrolidin-1-yl]carbonyl}pyridin-3-yl)-1H-1,2,4-triazol-3-yl]methyl}-4-[(2R)-3,3,3-trifluoro-2-hydroxypropyl]-2,4-dihydro-3H-1,2,4-triazol-3-one]	0.42	76.2	32
O=C(c1ncccc1-n1cnc(Cn2nc(-c3ccc(Cl)cc3)n(C[C@@H](O)C(F)(F)F)c2=O)n1)N1CCOC(C(F)(F)F)C1 (stereo partly drawn) [Example 470, 5-(4-Chlorophenyl)-4-[(2R)-3,3,3-trifluoro-2-hydroxypropyl]-2-{[1-(2-{[2-(trifluoromethyl)morpholin-4-yl]carbonyl}pyridin-3-yl)-1H-1,2,4-triazol-3-yl]methyl}-2,4-dihydro-3H-1,2,4-triazol-3-one]	0.75	42.7	32
O=C(c1ncccc1-n1cnc(Cn2nc(-c3ccc(Cl)cc3)n(C[C@@H](O)C(F)(F)F)c2=O)n1)N1CCCCC1 [Example 471, 5-(4-chlorophenyl)-2-({1-[2-(piperidin-1-ylcarbonyl)pyridin-3-yl]-1H-1,2,4-triazol-3-yl}methyl)-4-[(2R)-3,3,3-trifluoro-2-hydroxypropyl]-2,4-dihydro-3H-1,2,4-triazol-3-one]	0.15	139.3	20.9
O=C(c1ncccc1-n1cnc(Cn2nc(-c3ccc(Cl)cc3)n(C[C@@H](O)C(F)(F)F)c2=O)n1)N1CCOCC1 [Example 472, 5-(4-Chlorophenyl)-2-({1-[2-(morpholin-4-ylcarbonyl)pyridin-3-yl]-1H-1,2,4-triazol-3-yl}methyl)-4-[(2R)-3,3,3-trifluoro-2-hydroxypropyl]-2,4-dihydro-3H-1,2,4-triazol-3-one]	0.32	206.3	66
O=C(NC1(C(F)(F)F)CC1)c1ncccc1-n1cnc(Cn2nc(-c3ccc(Cl)cc3)n(C[C@@H](O)C(F)(F)F)c2=O)n1 [Example 473, 3-[3-({3-(4-Chlorophenyl)-5-oxo-4-[(2R)-3,3,3-trifluoro-2-hydroxypropyl]-4,5-dihydro-1H-1,2,4-triazol-1-yl}methyl)-1H-1,2,4-triazol-1-yl]-N-[1-(trifluoromethyl)cyclopropyl]pyridine-2-carboxamide]	0.092	19.6	1.8

Second part, the molecule after the results:

IC50 (human V1a receptor) [µM]	ratio IC50 hV2/hV1a (human V1a receptor)	IC50 (human V2 receptor) [µM]	SMILES
0.012	337.5	4.05	CN(CC1CC1)C(=O)c1ncccc1-n1cnc(Cn2nc(-c3ccc(Cl)cc3)n(C[C@H](O)C(F)(F)F)c2=O)n1 [Example 454, 3-[3-({3-(4-Chlorophenyl)-5-oxo-4-[(2S)-3,3,3-trifluoro-2-hydroxypropyl]-4,5-dihydro-1H-1,2,4-triazol-1-yl}methyl)-1H-1,2,4-triazol-1-yl]-N-(cyclopropylmethyl)-N-methylpyridine-2-carboxamide]
0.0044	272.7	1.2	CC1(NC(=O)c2ncccc2-n2cnc(Cn3nc(-c4ccc(Cl)cc4)n(C[C@H](O)C(F)(F)F)c3=O)n2)CC1 [Example 455, 3-[3-({3-(4-Chlorophenyl)-5-oxo-4-[(2S)-3,3,3-trifluoro-2-hydroxypropyl]-4,5-dihydro-1H-1,2,4-triazol-1-yl}methyl)-1H-1,2,4-triazol-1-yl]-N-(1-methylcyclopropyl)pyridine-2-carboxamide]
0.1	60.5	6.05	O=C(NC1CC1)c1ncccc1-n1cnc(Cn2nc(-c3ccc(Cl)cc3)n(C[C@@H](O)C(F)(F)F)c2=O)n1 [Example 458, 3-[3-({3-(4-Chlorophenyl)-5-oxo-4-[(2R)-3,3,3-trifluoro-2-hydroxypropyl]-4,5-dihydro-1H-1,2,4-triazol-1-yl}methyl)-1H-1,2,4-triazol-1-yl]-N-cyclopropylpyridine-2-carboxamide]
0.21	21.0	4.4	O=C(NCC1CC1)c1ncccc1-n1cnc(Cn2nc(-c3ccc(Cl)cc3)n(C[C@@H](O)C(F)(F)F)c2=O)n1 [Example 459, 3-[3-({3-(4-Chlorophenyl)-5-oxo-4-[(2R)-3,3,3-trifluoro-2-hydroxypropyl]-4,5-dihydro-1H-1,2,4-triazol-1-yl}methyl)-1H-1,2,4-triazol-1-yl]-N-(cyclopropylmethyl)pyridine-2-carboxamide]
0.097	61.3	5.95	O=C(NC1CC1F)c1ncccc1-n1cnc(Cn2nc(-c3ccc(Cl)cc3)n(C[C@@H](O)C(F)(F)F)c2=O)n1 (stereo partly drawn) [Example 462, 3-[3-({3-(4-Chlorophenyl)-5-oxo-4-[(2R)-3,3,3-trifluoro-2-hydroxypropyl]-4,5-dihydro-1H-1,2,4-triazol-1-yl}methyl)-1H-1,2,4-triazol-1-yl]-N-[2-fluorocyclopropyl]pyridine-2-carboxamide]
0.71	93.0	66	CC1CN(C(=O)c2ncccc2-n2cnc(Cn3nc(-c4ccc(Cl)cc4)n(C[C@@H](O)C(F)(F)F)c3=O)n2)CCO1 (stereo partly drawn) [Example 466, 5-(4-Chlorophenyl)-2-{[1-(2-{[2-methylmorpholin-4-yl]carbonyl}pyridin-3-yl)-1H-1,2,4-triazol-3-yl]methyl}-4-[(2R)-3,3,3-trifluoro-2-hydroxypropyl]-2,4-dihydro-3H-1,2,4-triazol-3-one]
